Measurements as given in paper PMC8000495, “A New Anti-Estrogen Discovery Platform Identifies FDA-Approved Imidazole Anti-Fungal Drugs as Bioactive Compounds against ERα Expressing Breast Cancer Cells” (International Journal of Molecular Sciences, 2021).

Key:
[1] = target: T1, estrogen receptor α (ERα) (Homo sapiens, UniProt P03372); experiment: fluorescence polarization competitive binding, dose-response
T1 construct: gene ESR1
T1 sequence (P03372 1-595): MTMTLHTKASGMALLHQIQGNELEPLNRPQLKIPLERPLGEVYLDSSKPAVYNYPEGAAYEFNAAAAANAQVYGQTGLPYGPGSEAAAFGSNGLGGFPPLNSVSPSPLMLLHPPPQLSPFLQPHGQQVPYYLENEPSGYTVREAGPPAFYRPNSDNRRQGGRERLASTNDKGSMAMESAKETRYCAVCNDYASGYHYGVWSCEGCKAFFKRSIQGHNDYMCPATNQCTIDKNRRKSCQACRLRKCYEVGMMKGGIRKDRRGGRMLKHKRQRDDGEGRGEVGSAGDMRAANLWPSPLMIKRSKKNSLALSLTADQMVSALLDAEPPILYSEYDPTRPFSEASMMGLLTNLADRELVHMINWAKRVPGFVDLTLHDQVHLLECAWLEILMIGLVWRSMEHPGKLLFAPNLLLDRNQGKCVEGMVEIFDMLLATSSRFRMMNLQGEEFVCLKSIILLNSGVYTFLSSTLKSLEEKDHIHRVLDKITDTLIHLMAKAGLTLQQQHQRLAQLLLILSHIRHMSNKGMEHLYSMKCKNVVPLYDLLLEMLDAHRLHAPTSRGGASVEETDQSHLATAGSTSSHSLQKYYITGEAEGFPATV

[2] = target: T1, estrogen receptor α (ERα)

| Compound | IC50 [1] [µM] | fluorescence polarization competitive binding screen, single dose 10^-4 M, Z* > [2] |
| --- | --- | --- |
| Clc1ccc(C(Cn2ccnc2)OCc2ccc(Sc3ccccc3)cc2)c(Cl)c1 (centres unmarked) [Fenti, fenticonazole] | ~14 | – |
| Oc1ccc(/C=C/c2cc(O)cc(O)c2)cc1 [resveratrol] | – | we found well-known receptor ligands (e.g., estriol, resveratrol, genistein) |
